# US10106582B2, “Complex-formation-modulating agents and uses therefor” (Factor Therapeutics Limited, priority 2012, dated 2018)
# Key:
# Type in all cases: cell-based, human
# [1] = tested on: MCF-7 cells; assay: Transwell migration assay, IGF-I+IGFBP-5+VN trimeric complex-stimulated MCF-7 cell migration
# Description: Two motifs (motifs 1 and 8) within native VN, deemed potentially significant in supporting the binding of IGF-II, IGFBP-3 and IGFBP-5, were identified as outlined in the previous section. After preliminary in silico analyses motif 8 (J4-7) was deemed as potentially the most significant region within native VN supporting binding interactions of all the three IGF-II, IGFBP-3 and IGFBP-5 proteins and was chosen for the initial analyses. The VN-peptide covering the sequences of motif 8 was designed such that it covered all the 3AA frameshift sets that contributed to a positive spot within the motif 8 (see, FIG. 3 and Table 7). The sequence of this peptide is RVNLRTRRVDTVDPPYPRS [SEQ ID NO:100] and is designated P8. […] The sequence of that peptide is […] [SEQ ID NO:86] and is designated P7. […] The functional effects of these peptides on IGF-I:IGFBP:VN-stimulated breast cancer cell migration were investigated using Transwell® assays. Transwells® were pre-bound with VN, either alone or in combination with IGF-I and IGFBP-5 (TRI). Treatment with TRI supplemented with increasing concentrations of peptides P7 and/or P8 were assayed. TRI supplemented with Anlg or Neg peptide were included as positive and negative controls of migration inhibition, respectively. All unbound proteins were removed with washing and MCF-7 cell migration was assessed over 15 hours.
# The Transwell® inserts were prepared by pre-binding the lower chamber and the under-surface of the 8-μm pore membranes with proteins as described below. For all 2D functional assays described throughout this study, including Transwell® the treatments for the pre-binding steps were VN, IGF-I+IGFBP-5+VN (TRI) complex, either alone or in combination with respective controls or VN-peptides. The concentrations of the proteins added into the culture wells were VN, 1 μg/mL; IGF-I, 30 ng/mL and IGFBP-5, 90 ng/mL, unless otherwise stated. The concentration of VN-peptides used are indicated where appropriate.
# Optimal IGF-I:IGFBP-5:VN-mediated attachment and migration of MCF-7 cells in multiwell plates is obtained by pre-binding human native-IGF-I and/or IGFBP-5 and VN at concentrations of 30 ng/mL, 90 ng/mL and 1 μg/mL per well, respectively, to the lower chambers and under surfaces of Transwells®. […] For Anlg, concentrations varying from 30 ng/mL to 300 ng/mL were used.
# Transwells® were prepared by pre-binding the test proteins, either alone or in combinations, to the lower chambers and under-surfaces of Transwells® following procedures previously described (Kricker et al., 2003). Briefly, 0.5 mL DMEM/F12 serum-free phenol-red free medium (SFM) containing 1 μg/mL VN was added to the lower chambers of 24-well, 8-μm pore Transwell® plates and incubated for 3 hours at 37° C. Unbound VN was removed and the wells were washed twice with 0.5 mL SFM+0.5% BSA following which 0.5 mL of SFM+0.5% BSA was placed in the lower chamber to block surfaces with no protein bound. To pre-bind growth factors, 0.5 mL SFM+0.05% BSA containing native IGF-I (30 ng/mL), IGFBP-5 (90 ng/mL) or Anlg, either alone or in combination, were added to the lower chambers of the Transwells® and incubated overnight at 4° C. The solution containing unbound growth factors was removed and the wells were washed twice with SFM+0.05% BSA and replaced with 0.5 mL of SFM+0.05% BSA. Throughout the pre-binding procedure care was taken to keep the upper surface of the Transwell® inserts dry.
# Migration assays were essentially performed following protocols described previously in Leavesley et al 1993, J Cell Biol. 121:163-70. The cells in culture flasks were split 1:1, 24 hours prior to performing the migration assay. The cells were serum-starved for 4 hours and a cell suspension containing 6×10^4 cells in 200 μL SFM+0.05% BSA was seeded onto the upper-surface of the pre-coated Transwell® inserts and incubated for 15 hours at 37° C., 5% CO2 (refer to above for proteins pre-bound and concentrations used). […]
# [2] = tested on: MCF-7 cells; assay: Transwell migration assay, IGF-I+IGFBP-3+VN (TRI)-stimulated MCF-7 cell migration
# Protocol: FIG. 6 is a graphical representation showing MCF-7 cell migration in response to VN peptides. MCF-7 cells were seeded onto the upper-surface of a Transwell inserts coated on the under-surface with treatments containing IGF-I+IGFBP-3+VN (TRI; 10 nM) with or without increasing concentrations of either peptide P7, P8 or Pneg. Migration was assessed after 15 hours. Data is represented as percentage of change in migration compared to the TRI only control. Error bars indicate standard error mean.
# This assay has been repeated three times with treatments tested in triplicate wells in each replicate experiment.
# The breast cancer epithelial cell line MCF-7 was used for this assay. Migration was assessed by measuring relative number of cells migrating through 8-μm pore Transwell membranes in response to substrate-bond proteins complexes. IGFBP-3 was allowed to bind either peptide P7, P8 or a combination of P7 and P8 for 2 hours. IGF-I was later added to this protein mix which was then added to Transwells pre-coated with VN. Post-overnight incubation, unbound proteins were removed, Transwells washed twice and cells seeded onto the upper chamber. Cells migrated to the under-surface over 15 hours were indirectly quantified using crystal violet staining.
# [3] = tested on: MCF-7 cells; assay: 3D Matrigel growth assay of MCF-7 tumor spheroids
# Description: FIG. 7 is a photographic and graphical representation showing MCF-7 3D cell growth in response to peptide antagonists. MCF-7 cells suspended in media containing 1% serum and 2.5% Matrigel (Matrigel media) were layered onto a thin layer of 100% Matrigel. Spheroids were allowed to form in Matrigel media containing VN, TRI or TRI supplemented with peptides P7 and P8. Cells were allowed to grow for 14 days with media+proteins changed every 3 days. (A) Phase contrast and fluorescence microscopy was used to obtain images of the spheroids treated with 90 nM P7, P8 or P7+8. The fluorescent images were subjected to analysis using Image J to calculate spheroid sizes. The images post-ImageJ analyses are depicted in the bottom panel of A. All the images depicted are representative images obtained from triplicate experiments with treatments tested in duplicates in each replicate experiment. Scale bar denotes 100 μm. (B) Scatter plot depicts mean spheroid size (μm^2) at Day 14 for each treatment, calculated using Image-J (90 nM peptide treatments are depicted here). Each data point in the graph is the average size of all spheroids present in a single field of view at 40× magnification. ** denotes p<0.01 and * denotes p<0.05. (C) To measure cell viability/proliferation the 3D culture was treated on Day 14 with 5% Alamar Blue dye for 4 hours and fluorescence intensities were recorded. Error bars indicate SEM. ** denotes p<0.01 Vs TRI and * denotes p<0.05 Vs TRI. The experiment was repeated twice with treatments tested in duplicate wells in each replicate experiment. TRI=IGF-I:IGFBP-5:VN trimeric complex (equimolar at 10 nM concentrations).
# To closely mimic in vivo conditions, cells were grown in a 3D matrix (Matrigel) closely resembling in vivo extracellular matrix physiology. MCF-7 cells suspended in growth media containing 1% serum and 2.5% Matrigel (Matrigel media) were layered onto a thin layer of 100% Matrigel. Tumor spheroids were allowed to form for 3 days after which spent media was replenished with Matrigel media containing VN only, trimeric complex, or trimeric complex supplemented with increasing concentrations of peptides (P7, P8 or P7+P8). Cells were allowed to grow for additional 11 days with media+proteins changed every 3 days. Spheroid morphology was assessed using phase-contrast microscopy and cell viability was measured using AlamarBlue, a fluorescent metabolic dye.
sequence,measurement,setting,value
"RVNLRTRRVDTVDPPYPRS (listed as Homo sapiens) [Peptide P8, human VN motif 8 mimic]",MCF-7 cell migration,"[1]; TRI supplemented with peptide at 3× molar concentration of IGFBP-5 (43 ng/mL P7, 38 ng/mL P8), 15 hours",94.4±1 % of VN
same,MCF-7 cell migration,"[1]; TRI supplemented with peptide at 9× molar concentration of IGFBP-5, 15 hours",121.7±8 % of VN
same,Inhibition of TRI-stimulated MCF-7 cell migration,"[2]; 30 nM peptide dose, TRI 10 nM, 15 hours (most significant inhibition)",returned to the ‘VN only’ treatment levels
same,Inhibition of TRI-stimulated MCF-7 cell migration,"[2]; increasing peptide concentrations added to TRI (IGF-I+IGFBP-3+VN; 10 nM), 15 hours",dose dependent inhibition
same,TRI-stimulated cell viability (AlamarBlue),"[3]; 90 nM peptide, Day 14, 3D Matrigel culture",significantly inhibit
same,Spheroid size (ImageJ) versus control TRI treatment,"[3]; 90 nM peptide, Day 14, phalloidin staining",highest inhibitory effects
same,Size of TRI-treated tumor spheroids (phase-contrast microscopy),"[3]; increasing concentrations of peptides, Matrigel 3D culture, 14 days",decrease with increasing concentrations
